Measured values as given in patent US20240158446A1, “CYCLIC COMPOUND HAVING SELECTIVE INHIBITORY ACTION ON KRAS OVER HRAS AND NRAS” (CHUGAI SEIYAKU KABUSHIKI KAISHA, priority 2021, published 2024).

How the values were obtained:
[1] = target: GDP-bound NRAS wild-type protein (Homo sapiens, UniProt P01111); experiment: Binding to NRAS by surface plasmon resonance (SPR), Single Cycle Kinetics; details: SPR, GDP-bound NRAS wild-type protein vs GDP-bound KRAS wild-type protein
[2] = target: GDP-bound KRAS wild-type protein (Homo sapiens, UniProt P01116); experiment: Binding to KRAS by surface plasmon resonance (SPR), Single Cycle Kinetics; details: SPR Single Cycle Kinetics, GDP-bound KRAS wild-type protein, 1:1 binding model; read-out: KRAS KD
[3] = target: GDP-bound HRAS wild-type protein (Homo sapiens, UniProt P01112); experiment: Binding to HRAS by surface plasmon resonance (SPR), Single Cycle Kinetics; details: SPR, GDP-bound HRAS wild-type protein vs GDP-bound KRAS wild-type protein
Chain of GDP-bound HRAS wild-type protein (P01112 whole entry): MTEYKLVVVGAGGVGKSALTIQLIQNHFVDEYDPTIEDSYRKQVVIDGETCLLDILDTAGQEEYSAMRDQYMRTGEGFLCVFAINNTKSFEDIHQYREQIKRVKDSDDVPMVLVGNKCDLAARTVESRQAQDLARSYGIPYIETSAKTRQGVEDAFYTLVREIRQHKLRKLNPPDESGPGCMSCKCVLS

Chain of GDP-bound KRAS wild-type protein (P01116 whole entry): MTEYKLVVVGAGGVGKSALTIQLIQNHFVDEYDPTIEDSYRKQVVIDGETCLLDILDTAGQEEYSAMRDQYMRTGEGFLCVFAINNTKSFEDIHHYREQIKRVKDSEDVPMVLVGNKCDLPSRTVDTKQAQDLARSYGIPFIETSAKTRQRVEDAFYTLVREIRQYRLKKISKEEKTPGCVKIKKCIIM
Chain of GDP-bound NRAS wild-type protein (P01111 whole entry): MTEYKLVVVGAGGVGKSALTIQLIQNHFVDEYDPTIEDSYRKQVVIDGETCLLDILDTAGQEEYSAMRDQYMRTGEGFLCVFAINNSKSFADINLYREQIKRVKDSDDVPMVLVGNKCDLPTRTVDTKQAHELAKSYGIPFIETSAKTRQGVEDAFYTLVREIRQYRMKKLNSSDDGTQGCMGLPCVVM

Compound | NRAS/KRAS (ratio of KD value with respect to NRAS to KD value with respect to KRAS) [1] | Kd [2] [nM] | HRAS/KRAS (ratio of KD value with respect to HRAS to KD value with respect to KRAS) [3]
CC[C@H](C)[C@@H]1NC(=O)[C@H](CC(C)C)N(C)C(=O)C[C@@H](C(=O)N2CCOCC2)N(C)C(=O)[C@H](C2CCCC2)N(C)C(=O)C2(CCCC2)NC(=O)[C@@H]2CCCN2C(=O)[C@H](CCc2ccc(C(F)(F)F)c(Cl)c2)NC(=O)CN(C)C(=O)[C@H](Cc2ccc(OC(F)(F)F)cc2)N2CC=CC[C@@H](C2=O)N(C)C(=O)CN(C)C1=O [PP0537] | C (A compound having a KD ratio of 0.1 or more and less than 3 is denoted as C) | 5.8 | C (A compound having a KD ratio of 0.1 or more and less than 3 is denoted as C)
CC[C@H](C)[C@@H]1NC(=O)[C@H](CC(C)C)N(C)C(=O)C[C@@H](C(=O)N2CCOCC2)N(C)C(=O)[C@H](C2CCCC2)N(CC)C(=O)C2(CCCC2)NC(=O)[C@@H]2CCCN2C(=O)[C@H](CCc2cc(F)c(C(F)(F)F)c(F)c2)NC(=O)CN(C)C(=O)[C@H](Cc2ccc(C(F)(F)F)cc2)N2CCCC[C@@H](C2=O)N(C)C(=O)CN(C)C1=O [PP0538] | B (a compound having 3 or more and less than 10 is denoted as B) | 0.67 | B (a compound having 3 or more and less than 10 is denoted as B)
CC[C@H](C)[C@@H]1NC(=O)[C@H](CC(C)C)N(C)C(=O)C[C@@H](C(=O)N2CCOCC2)N(CC)C(=O)[C@H](C2CCCC2)N(C)C(=O)C2(CCCC2)NC(=O)[C@@H]2CCCN2C(=O)[C@H](CCc2cc(F)c(C(F)(F)F)c(F)c2)NC(=O)CN(C)C(=O)[C@H](Cc2ccc(C(F)(F)F)cc2)N2CCCC[C@@H](C2=O)N(C)C(=O)CN(C)C1=O [PP0539] | B (a compound having 3 or more and less than 10 is denoted as B) | 0.17 | B (a compound having 3 or more and less than 10 is denoted as B)
CC[C@H](C)[C@@H]1NC(=O)[C@H](CC(C)C)N(C)C(=O)C[C@@H](C(=O)N2CCOCC2)N(C)C(=O)[C@H](C2CCCC2)NC(=O)C2(CCCC2)NC(=O)[C@@H]2CCCN2C(=O)[C@H](CCc2cc(F)c(C(F)(F)F)c(F)c2)NC(=O)CN(C)C(=O)[C@H](Cc2ccc(C(F)(F)F)cc2)N2CCCC[C@@H](C2=O)N(C)C(=O)CN(C)C1=O [PP0540] | B (a compound having 3 or more and less than 10 is denoted as B) | 17 | B (a compound having 3 or more and less than 10 is denoted as B)
CC[C@H](C)[C@@H]1NC(=O)[C@H](CC(C)C)N(C)C(=O)C[C@@H](C(=O)N2CCOCC2)N(C)C(=O)[C@H](C2CCCC2)N(C)C(=O)C2(CCCC2)NC(=O)[C@@H]2CCCN2C(=O)[C@H](CCc2cc(F)c(C(F)(F)F)c(F)c2)NC(=O)CN(C)C(=O)[C@H](Cc2ccc(C(F)(F)F)cc2)N2CCCC[C@@H](C2=O)N(C)C(=O)CNC1=O [PP0542] | B (a compound having 3 or more and less than 10 is denoted as B) | 0.11 | B (a compound having 3 or more and less than 10 is denoted as B)
CC[C@H](C)[C@@H]1NC(=O)[C@H](CC(C)C)N(C)C(=O)C[C@@H](C(=O)N2CCOCC2)N(C)C(=O)[C@H](C2CCCC2)N(C)C(=O)C2(CCCC2)NC(=O)[C@@H]2CCCN2C(=O)[C@H](CCc2cc(F)c(C(F)(F)F)c(F)c2)NC(=O)CN(C)C(=O)[C@H](Cc2ccc(C(F)(F)F)cc2)N2CCCC[C@@H](C2=O)N(C)C(=O)[C@H](C)NC1=O [PP0543] | B (a compound having 3 or more and less than 10 is denoted as B) | 1 | B (a compound having 3 or more and less than 10 is denoted as B)
CC[C@H](C)[C@@H]1NC(=O)[C@H](CC(C)C)N(C)C(=O)C[C@@H](C(=O)N2CCOCC2)N(C)C(=O)[C@H](C2CCCC2)N(C)C(=O)C2(CCCC2)NC(=O)[C@@H]2CCCN2C(=O)[C@H](CCc2cc(F)c(C(F)(F)F)c(F)c2)NC(=O)CN(C)C(=O)[C@H](Cc2ccc(C(F)(F)F)cc2)N2CCCC[C@@H](C2=O)N(C)C(=O)[C@H](C)N(C)C1=O [PP0544] | B (a compound having 3 or more and less than 10 is denoted as B) | 18 | B (a compound having 3 or more and less than 10 is denoted as B)
CC[C@H](C)[C@@H]1NC(=O)[C@H](CC(C)C)N(C)C(=O)C[C@@H](C(=O)N2CCOCC2)N(C)C(=O)[C@H](C2CCCC2)N(C)C(=O)C2(CCCC2)NC(=O)[C@@H]2CCCN2C(=O)[C@H](CCc2cc(F)c(C(F)(F)F)c(F)c2)NC(=O)CN(C)C(=O)[C@H](Cc2ccc(C(F)(F)F)cc2)N2CCCC[C@@H](C2=O)N(C)C(=O)CN(CC)C1=O [PP0545] | B (a compound having 3 or more and less than 10 is denoted as B) | 0.24 | B (a compound having 3 or more and less than 10 is denoted as B)
CC[C@H](C)[C@@H]1NC(=O)[C@H](CC(C)C)N(C)C(=O)C[C@@H](C(=O)N2CCOCC2)N(C)C(=O)[C@H](C2CCCC2)N(C)C(=O)C2(CCCC2)NC(=O)[C@@H]2CCCN2C(=O)[C@H](CCc2cc(F)c(C(F)(F)F)c(F)c2)NC(=O)CN(C)C(=O)[C@H](Cc2ccc(C(F)(F)F)cc2)N2CCCC[C@@H](C2=O)N(C)C(=O)[C@@H]2CCCN2C1=O [PP0547] | B (a compound having 3 or more and less than 10 is denoted as B) | 0.36 | B (a compound having 3 or more and less than 10 is denoted as B)
CC[C@H](C)[C@@H]1NC(=O)[C@H](CC(C)C)N(C)C(=O)C[C@@H](C(=O)N2CCOCC2)N(C)C(=O)[C@H](C2CCCC2)N(C)C(=O)C2(CCCC2)NC(=O)[C@@H]2CCCN2C(=O)[C@H](CCc2cc(F)c(C(F)(F)F)c(F)c2)NC(=O)CN(C)C(=O)[C@H](Cc2ccc(C(F)(F)F)cc2)N2CCCC[C@@H](C2=O)N(C)C(=O)[C@@H]2CCCCN2C1=O [PP0548] | C (A compound having a KD ratio of 0.1 or more and less than 3 is denoted as C) | 15 | B (a compound having 3 or more and less than 10 is denoted as B)
CC[C@H](C)[C@@H]1NC(=O)[C@H](C)N(C)C(=O)C[C@@H](C(=O)N2CCOCC2)N(C)C(=O)[C@H](C2CCCC2)N(C)C(=O)C2(CCCC2)NC(=O)[C@@H]2CCCN2C(=O)[C@H](CCc2cc(F)c(C(F)(F)F)c(F)c2)NC(=O)CN(C)C(=O)[C@H](Cc2ccc(C(F)(F)F)cc2)N2CCCC[C@@H](C2=O)N(C)C(=O)CN(C)C1=O [PP0549] | C (A compound having a KD ratio of 0.1 or more and less than 3 is denoted as C) | 0.062 | B (a compound having 3 or more and less than 10 is denoted as B)
CC[C@H](C)[C@@H]1NC(=O)[C@H](CC(C)C)N(C)C(=O)C[C@@H](C(=O)N2CCOCC2)N(C)C(=O)[C@H](C2CCCC2)N(C)C(=O)C2(CCCC2)NC(=O)[C@@H]2CCCN2C(=O)[C@H](CCc2cc(F)c(C(F)(F)F)c(F)c2)NC(=O)CN(C)C(=O)[C@H](Cc2ccc(C(F)(F)F)cc2)N2CCCC[C@@H](C2=O)N(C)C(=O)CN(C)C1=O [PP0552] | B (a compound having 3 or more and less than 10 is denoted as B) | 0.052 | B (a compound having 3 or more and less than 10 is denoted as B)
CCO[C@@H]1C[C@H]2C(=O)NC3(CCCC3)C(=O)N(C)[C@@H](C3CCCC3)C(=O)N(C)[C@H](C(=O)N3CCOCC3)CC(=O)N(C)[C@@H](CC(C)C)C(=O)N[C@@H]([C@@H](C)CC)C(=O)N(C)CC(=O)N(C)[C@H]3CCCCN(C3=O)[C@@H](Cc3ccc(C(F)(F)F)cc3)C(=O)N(C)CC(=O)N[C@@H](CCc3cc(F)c(C(F)(F)F)c(F)c3)C(=O)N2C1 [PP0554] | B (a compound having 3 or more and less than 10 is denoted as B) | 0.036 | B (a compound having 3 or more and less than 10 is denoted as B)
CC[C@H](C)[C@@H]1NC(=O)[C@H](CC(C)C)N(C)C(=O)C[C@@H](C(=O)N2CCOCC2)N(C)C(=O)[C@H](C2CCCC2)N(C)C(=O)C2(CCCC2)NC(=O)[C@@H]2CC(=O)CN2C(=O)[C@H](CCc2cc(F)c(C(F)(F)F)c(F)c2)NC(=O)CN(C)C(=O)[C@H](Cc2ccc(C(F)(F)F)cc2)N2CCCC[C@@H](C2=O)N(C)C(=O)CN(C)C1=O [PP0555] | B (a compound having 3 or more and less than 10 is denoted as B) | 0.066 | B (a compound having 3 or more and less than 10 is denoted as B)
